{"source": "paper PMC10183817", "about": "“Inhibition of ATP synthase reverse activity restores energy homeostasis in mitochondrial pathologies” (The EMBO Journal, 2023)", "key": {"[1]": {"molecular_target": "T1, mitochondrial ATP synthase (F1F0ATPase, Complex V, CV) (Mus musculus, UniProt P56480+Q03265)", "T1 construct": "gene Atp5f1a; native fully assembled complex in isolated mouse heart mitochondria (frozen/thawed, or separated by blue native gel); with ATP synthase F(1) complex subunit gamma, mitochondrial; ATP synthase F(1) complex subunit delta, mitochondrial; ATP synthase F(1) complex subunit epsilon, mitochondrial; ATP synthase peripheral stalk subunit OSCP, mitochondrial; ATP synthase peripheral stalk subunit b, mitochondrial; ATP synthase peripheral stalk subunit d, mitochondrial; ATP synthase peripheral stalk subunit F6, mitochondrial; ATP synthase F(0) complex subunit a; ATP synthase F(0) complex subunit 8; ATP synthase F(0) complex subunit C1, mitochondrial", "experiment": "acidification rate (Seahorse XF96), isolated heart mitochondria", "format": "biochemical", "details": "ATP 20 mM; pH 7.2; oligomycin-sensitive"}, "[2]": {"molecular_target": "T2, purified bovine CV (Complex V, F-type ATP synthase) (Bos taurus, UniProt P00829+P19483)", "T2 construct": "gene ATP5F1A; native purification from bovine heart; monomer (LMNG), tetramer (GDN) and oligomer preparations; with ATP synthase F(1) complex subunit gamma, mitochondrial; ATP synthase F(1) complex subunit delta, mitochondrial; ATP synthase F(1) complex subunit epsilon, mitochondrial; ATP synthase peripheral stalk subunit OSCP, mitochondrial; ATP synthase peripheral stalk subunit b, mitochondrial; ATP synthase peripheral stalk subunit d, mitochondrial; ATP synthase peripheral stalk subunit F6, mitochondrial; ATP synthase F(0) complex subunit a; ATP synthase F(0) complex subunit 8; ATP synthase F(0) complex subunit C1, mitochondrial", "experiment": "in-gel ATP hydrolysis, blue native gel, purified CV", "format": "biochemical", "details": "monomer, tetramer and oligomers, also F1 subcomplex; independent of the ATPIF1 amount"}, "[3]": {"molecular_target": "T2, purified bovine CV (Complex V, F-type ATP synthase)", "experiment": "competition with ATPIF1-GFP for CV tetramer, blue native gel fluorescence", "details": "indirect binding read-out; prevents ATPIF1-GFP binding, does not displace bound ATPIF1; room temperature"}, "[4]": {"molecular_target": "T1, mitochondrial ATP synthase (F1F0ATPase, Complex V, CV)", "experiment": "HyFS: acidification rate (Seahorse XF96), frozen heart mitochondria", "format": "biochemical", "details": "EPI 100 nM; ATP 20 mM; pH 7.2; MAS buffer; partial inhibition, ATP synthesis not impaired"}}, "data": [{"smiles": "Nc1ncnc2c1ncn2[C@@H]1O[C@H](COP(=O)(O)OP(=O)(O)OP(=O)(O)O)[C@@H](O)[C@H]1O", "note": "[ATP]", "values": [{"measurement": "acidification rate (Seahorse XF96), isolated heart mitochondria", "setting": "[1]", "result": "addition of ATP resulted in a sharp increase in proton release that was oligomycin sensitive"}]}, {"smiles": "Oc1cc(O)c2c(c1)O[C@@H](c1ccc(O)c(O)c1)[C@@H](O)C2", "note": "[EPI, (+)-Epicatechin]", "values": [{"measurement": "in-gel ATP hydrolysis, blue native gel, purified CV", "setting": "[2]", "result": "We found that EPI inhibited ATP hydrolysis independently of the amount of ATPIF1"}, {"measurement": "competition with ATPIF1-GFP for CV tetramer, blue native gel fluorescence", "setting": "[3]", "result": "In both purified tetramers and isolated mitochondria, EPI prevented the binding of ATPIF1‐GFP"}, {"measurement": "% inhibition", "setting": "[4]", "result": "~ 30%"}]}]}
